The MIC is the lowest concentration that inhibits growth of the organism. A high value points to a need for much substance.

Where a name gives a salt, the structure may show the parent alone.

Experiment [1] relates to Pseudomonas aeruginosa Charlier. In words: Minimum Inhibitory Concentration (MIC) by serial dilution in agar. The conditions noted are these: 10⁴ colony forming units, incubated overnight at 37°C, lowest concentration to inhibit growth. Format: cell-based. The procedure:
(§1) Minimum Inhibitory Concentration (MIC) values of compounds of the invention against Enterobacter cloacae P99 and Pseudomonas aeruginosa Charlier were determined by serial dilution in agar. The plates were inoculated with 10⁴ colony forming units and incubated overnight at 37°C. The MIC values recorded in Table 1 were the lowest concentration of antibiotic to inhibit growth. Comparative data for 7β-[2-(3,4-diacetoxyphenyl)-2-[4-ethyl-2,3-dioxopiperazin-1-yl)carbonylamino]-acetamido]-7α-formamido-3-[1-methyl-1H-tetrazol-5-yl) thiomethyl]ceph-3-em-4-carboxylic acid, sodium salt (compound A), disclosed in European Patent Application No.82303821.1 (Publication Number 0 071 395; Example 57), are also given.

The next experiment deals with Enterobacter cloacae P99. The experiment is described as above. Format: cell-based. As to the method: as §1

With `CCN1CCN(C(=O)NC(C(=O)N[C@]2(NC=O)C(=O)N3C(C(=O)O)=C(CSc4nnnn4C)CS[C@@H]32)c2ccc(OC(C)=O)c(OC(C)=O)c2)C(=O)C1=O` (stereo partly drawn) [Compound A, 7β-[2-(3,4-diacetoxyphenyl)-2-[4-ethyl-2,3-dioxopiperazin-1-yl)carbonylamino]acetamido]-7α-formamido-3-[1-methyl-1H-tetrazol-5-yl) thiomethyl]ceph-3-em-4-carboxylic acid, sodium salt, reference compound], the minimal inhibitory concentration (MIC) in experiment [1] was 4 µg/mL; in the experiment with Enterobacter cloacae P99 it was 8 µg/mL.
On to `CCN1CCN(C(=O)N[C@@H](C(=O)N[C@]2(NC=O)C(=O)N3C(C(=O)O)=C(CSc4nnnn4N)CS[C@@H]32)c2ccc(OC(C)=O)c(OC(C)=O)c2)C(=O)C1=O` [Example 1, Sodium 3-[(1-Amino-1H-tetrazol-5-yl)thiomethyl]-7β-[D-2-(3,4-diacetoxyphenyl)-2-[(4-ethyl-2,3-dioxopiperazin-1-yl)carbonylamino]acetamido]-7α-formamidoceph-3-em-4-carboxylate], for which the MIC (in experiment [1]; against Enterobacter cloacae P99) was 2 µg/mL throughout.
In the case of `CCN1CCN(C(=O)N[C@@H](C(=O)N[C@]2(NC=O)C(=O)N3C(C(=O)O)=C(CSc4nnnn4N)CS[C@@H]32)c2ccc(O)c(O)c2)C(=O)C1=O` [Example 2, Sodium 3-[(1-Amino-1H-tetrazol-5-yl)thiomethyl]-7β-[D-2-(3,4-dihydroxyphenyl)-2-[(4-ethyl-2,3-dioxopiperazin-1-yl)carbonylamino]acetamido]-7α-formamidoceph-3-em-4-carboxylate], the values for the MIC (in experiment [1]; against Enterobacter cloacae P99) were 2 µg/mL and 4 µg/mL, respectively.

The values are drawn from patent publication EP0308559A2, “Cephalosporins, process for their preparation, pharmaceutical compositions containing them and intermediates” (BEECHAM GROUP PLC, priority 1987, dated 1989).
